Ends that are not written are not given here. Peptide text beside a SMILES is read from it.
Experiments:
CD-1 male mice [1] = assay: Footshock active avoidance training (FAAT) in T-maze, amnesia test in well-trained mice, post-training ICV injection; format: in vivo; conditions: for amnestic effect on retention of FAAT: 6.14 nmol of peptide per mouse (except dose-response curves), well-trained mice, retention tested one week later; for amnestic efficacy/potency compared with another peptide: dose-response curves / FIG. 19
Procedure: (§1) Test Animals. After 1 week in the laboratory, CD-1 male mice obtained from Charles River Breeding Laboratories were caged individually 24-28 hours prior to training and remained singly housed until retention was tested one week later. Animal rooms were on a 12 hour light/dark cycle with lights going on at the hour of 0600. Median body weight was 35 g, with a range of 33-38 g. Mice were assigned randomly to groups of 15 in the experiments reported in FIGS. 1-18 and groups of 10 for the dose-response curves (FIGS. 19 and 20) and were trained and tested between the hours of 0700 and 1500.
(§2) Peptides Tested. With the exception of Val Phe and Phe Val from Sigma, all peptides used in these studies were synthesized and analyzed to establish purity by standard methods at the Beckman Research Institute. Peptides were dissolved in: (1) saline; (2) 8% vol/vol dimethyl sulfoxide; (3) glacial acetic acid neutralized with […]; or (4) NaOH neutralized with HCl.
With exception of dose-response curves, the experiments reported below tested whether or not there was an amnestic effect at 6.14 nmol of peptide per mouse.
(§3) Apparatus, Training and Testing Procedures. The T-maze used for footshock active avoidance training (FAAT) consisted of a black plastic alley (46 cm long) with a start box at one end and two goal boxes (17.5 cm long) at the other. The start box was separated from the alley by a plastic guillotine door that prevented movement down the alley until training began. The alley was 12.5 cm deep and 9.8 cm wide. An electrifiable stainless steel rod floor ran throughout the maze.
(§4) Mice were not permitted to explore the maze before training. A block of training trials began when a mouse was placed in the start box. The guillotine door was raised and a muffled doorbell-type buzzer sounded simultaneously; footshock was 5 seconds later through a scrambled grid floor shocker (Colbourn Instruments, Model E13-08). The goal box first entered during the first set of trials was designated as "incorrect", and footshock was continued until the mouse entered the other goal box, which in all subsequent trials was designated "correct" for the particular mouse. At the end of each group of trials, the mouse was removed to its home cage.
As training proceeded, a mouse made one of two types of responses. A response latency longer than 5 seconds was classed as an escape from the footshock. A response latency less than or equal to 5 seconds was considered an avoidance, since the mouse avoided receiving a footshock. Two exclusion criteria were applied to reduce learning variability among mice, as follows. On the first training trials, mice with escape latencies greater than 20 seconds were discarded. Mice not having at least one errorless escape latency between 1.5 and 3.5 seconds on training trials 3 or 4 were excluded. […] Mice received five such training trials. One week after training and post-trial administration of vehicle alone or vehicle containing test substance, T-maze training was resumed until each mouse made five avoidance responses in six consecutive training trials (trials to criterion). The recall score was taken to be the percentage of tested mice remembering original training.
In these instances, training was performed under conditions that tend to maximize learning (sound intensity, 65 decibels; footshock current, 0.35 mA; intertrial interval, 45 seconds).

CD-1 male mice [2] = assay: FAAT in T-maze, memory-enhancement test in weakly trained mice (poor retention in vehicle controls), post-training ICV injection; format: in vivo; conditions: for Lowest Concentration For Significant Memory Enhancement: Table 1
Procedure: as §1
as §2, with “HCl. […] Analysis of variance showing insignificant differences among the latter, the value for the most frequently employed (No. 2 above) was used for comparison with groups receiving test peptides.” for “HCl.”
as §3, §4
As training proceeded, a mouse made one of two types of responses. A response latency longer than 5 seconds was classed as an escape from the footshock. A response latency less than or equal to 5 seconds was considered an avoidance, since the mouse avoided receiving a footshock. Two exclusion criteria were applied to reduce learning variability among mice, as follows. On the first training trials, mice with escape latencies greater than 20 seconds were discarded. Mice not having at least one errorless escape latency between 1.5 and 3.5 seconds on training trials 3 or 4 were excluded. The total exclusions were fewer than 15%. Mice received five such training trials. One week after training and post-trial administration of vehicle alone or vehicle containing test substance, T-maze training was resumed until each mouse made five avoidance responses in six consecutive training trials (trials to criterion). The recall score was taken to be the percentage of tested mice remembering original training.
Well-trained animals (recall score approximately 80%) were used to determine whether or not administered substances could cause amnesia. In these instances, training was performed under conditions that tend to maximize learning (sound intensity, 65 decibels; footshock current, 0.35 mA; intertrial interval, 45 seconds). In the cases in which it was desired to detect whether or not there was an enhancing effect on memory, training conditions were adjusted so that the initial recall score in vehicle controls was only approximately 20% (sound intensity, 55 decibels; footshock current, 0.30 mA; intertrial interval, 30 seconds). […]

CD-1 male mice [3] = conditions: cited from earlier work; for amnestic effect on retention of FAAT (earlier publications): post-training ICV, references 1 and 12
[4] = references 13-16; cited from earlier work
[5] = test system: hippocampal neurons in culture; conditions: reference 17; cited from earlier work

Compound: NC(=O)CC[C@H](N)C(=O)N[C@@H](Cc1ccccc1)C(=O)N[C@@H](Cc1ccccc1)C(=O)NCC(=O)O [Gln Phe Phe Gly] (H-QFFG-OH)
- amnestic effect on retention of FAAT (CD-1 male mice [1]; post-training ICV): amnestic
- dose at which statistically significant memory enhancement found (CD-1 male mice [2]; weakly trained animals): 10^-14 moles/mouse
- memory-enhancing potency compared with other peptides (CD-1 male mice [2]; weakly trained mice): by far the most potent
- Lowest Concentration For Significant Memory Enhancement (CD-1 male mice [2]; weakly trained mice): 6 × 10^-14 Moles/Mouse

Compound: N[C@@H](Cc1ccccc1)C(=O)N[C@@H](Cc1ccccc1)C(=O)O [Phe Phe] (H-Phe-Phe-OH)
- amnestic effect on retention of FAAT (CD-1 male mice [1]; post-training ICV): amnestically ineffective
- mean trials to criterion ±SEM (CD-1 male mice [1]; post-training ICV, 6.14 nmol per mouse, vehicle 6.80±0.21): 7.0±0.42

Compound: CC(C)[C@H](N)C(=O)N[C@@H](Cc1ccccc1)C(=O)N[C@@H](Cc1ccccc1)C(=O)O [Val Phe Phe] (H-Val-Phe-Phe-OH)
- amnestic efficacy/potency compared with another peptide (CD-1 male mice [1]; ICV): not significantly different from that of the β-A4 homologue [Gln^11 ]β-(1-28)
- dose at which amnesia first noted (CD-1 male mice [1]; ICV, well-trained animals): 3×10^-9 moles/mouse
- amnestic effect on retention of FAAT (CD-1 male mice [1]; post-training ICV): amnestic
- dose at which statistically significant memory enhancement found (CD-1 male mice [2]; weakly trained animals): 1.9×10^-11 moles/mouse
- memory-enhancing effect (CD-1 male mice [2]; weakly trained animals): memory enhancer
- Lowest Concentration For Significant Memory Enhancement (CD-1 male mice [2]; weakly trained mice): 1.9 × 10^-11 Moles/Mouse

Compound: CC(C)[C@H](N)C(=O)N[C@@H](Cc1ccccc1)C(=O)N[C@H](C(=O)O)[C@@H](C)O [Val Phe Thr] (H-Val-Phe-Thr-OH)
- amnestic effect on retention of FAAT (CD-1 male mice [1]; post-training ICV): amnestic

Compound: His Ser Asp Ala Val Phe Thr Asp Asn Tyr Thr Arg Leu Lys Gln Met Ala Val Lys Lys Tyr Leu Asn Ser Ile Leu Asn-NH2 (HSDAVFTDNYTRLKQMAVKKYLNSILN-NH2) [VIP]
- amnestic effect on retention of FAAT (earlier publications) (CD-1 male mice [3]): amnestic

Compound: KLVFFAE [Lys Leu Val Phe Phe Ala Glu]
- amnestic effect on retention of FAAT (CD-1 male mice [1]; post-training ICV): not amnestic

Compound: Pro Arg Pro Gly Pro Gln Gln Phe Phe Gly Leu Met-NH2 (PRPGPQQFFGLM-NH2) [Substance Pro]
- memory retention (literature) [4]: enhance memory retention
- effect on trophic and toxic effects of β-A4 on hippocampal neurons [5]: counteract trophic and toxic effects of B-A4 on hippocampal neurons in culture

Compound: VFFAE [Val Phe Phe Ala Glu]
- amnestic efficacy/potency compared with another peptide (CD-1 male mice [1]; ICV): lesser potency of Val Phe Phe Ala Glu than that of Val Phe Phe
- amnestic effect on retention of FAAT (CD-1 male mice [1]; post-training ICV): amnestic

Compound: VFFAEDVGSNK [β-(18-28)]
- amnestic effect on retention of FAAT (earlier publications) (CD-1 male mice [3]): amnestic

Compound: β-(1-18): β-A4 fragment as printed in b47; probably the β-(1-28) homologue of reference 1 (DAEFRHDSGYEVHHQKLV; Amyloid-beta protein 42; UniProt P05067 672-689, looked up, fragment)
- dose at which active (amnestic) (CD-1 male mice [3]; ICV, reference 1): 1.5 nmol per mouse

Reference: US5652334A, “Method for design of substances that enhance memory and improve the quality of life” (City of Hope, priority 1993, dated 1997)
